In paper PMC10353061 (ACS Pharmacology & Translational Science, 2023):
pEC50, pIC50: −log10 of the molar value.

Key:
HCT116 colon cancer cell = conditions: cited from earlier work
[1] = tested on: Wnt/β-catenin signaling pathway; experiment: Topflash/Fopflash luciferase report assay in SW480 cells; assay type: cell-based; conditions: 30 μM
Description: (§1) We synthesized derivatives 5–10 bearing 5-membered and 6-membered heterocyclic rings at the position 3′ or 4′ of the B phenyl ring. […] SW480 cells show higher Wnt activation compared to HCT116 cells.[28] […] In SW480 cells, compounds 5–10 were in the 1.75%(10)–7.32%(7) range of residual luciferase activity, except 6(28.46%), compared to 3(21.61%); in HCT116 cells, compounds 5–10 were in the 0.37%(7)–5.88%(5) range, compared to 3 (18.75%) (Table 1 and Figure 5).
(§2) Figure 5 Residual luciferase activity (%) by compounds 5–10 and reference compound 3 in SW480 cells (left panel) and HCT116 cells (right panel). Data are represented as the mean ± SD of three independent experiments, each performed in triplicate.
(§3) Briefly, the Topflash plasmid (Beyotime, Zhejiang, China) contains 7 TCF/LEF binding sites, while the Fopflash plasmid (Beyotime, Zhejiang, China) contains 6 mutated TCF/LEF binding sites, which are located in the upstream of the luciferase reporter. SW480 and HCT116 cell lines were cultured in 90% DMEM (HyClone, #SH30243.01) plus 10% fetal bovine serum (Gibco, #10270) and plasmocin (mpp-39-03, InvivoGen), respectively. The Topflash/Fopflash vector and plasmid pTK-renilla together were co-transfected to the cells. […] The Dual-Glo luciferase assay kit (Promega, #E1910) was used to measure the luminescence intensity (Figure 2).

[2] = tested on: Wnt/β-catenin signaling pathway; experiment: Topflash/Fopflash luciferase report assay in HCT116 cells; assay type: cell-based, human; conditions: 30 μM
Description: as §1, §2, §3

HCC1806 cells = experiment: Cell proliferation by live-cell imaging (IncuCyte), HCC1806 TNBC cells; assay type: cell-based; conditions: 40 μM, 72 h
Procedure: (§4) As TNBC is a highly heterogeneous subgroup, including breast cancers with different molecular and phenotypic traits,[37] effects of compounds 5–10 on cell proliferation were also tested in additional TNBC cell lines, i.e., HCC1806 and HCC1937. As inhibitors of HCC1806 TNBC cells, compounds 5–10 were evaluated in parallel with compounds 3, ICG-001, and iCRT3 (Figures 10 and S12–S19, Supporting Information); as inhibitors of the HCC1937 TNBC cells, 5–10 were compared with 3 and iCRT3 (Figures 10, S20, and S21). Effects on cell proliferation were evaluated as above for the MDA-MB-231 TNBC cells at the latest time point of observation of 72 h.
(§5) Figure 10 Inhibition of MDA-MB-231, HCC1806, and HCC1937 TNBC cell growth by compounds 5–10 and reference compounds 3, […], and iCRT3 at 40 μM. Cell growth inhibition was quantified using the IncuCyte cell-by-cell analysis software, by comparison with the growth of DMSO-treated cells at 72 h, set at 100% (mean ± SD, n = 3, one-way ANOVA, **p ≤ 0.01, ****p ≤ 0.0001).
(§6) Cell proliferation of breast cancer cell lines upon continuous treatment with select compounds was evaluated by the real-time quantitative live-cell imaging system. MDA-MB-231 (1500 cells/well), HCC1806 (2000 cells/well), and HCC1937 (3000 cells/well) were seeded in 96-well plates, treated with increasing doses of selected compounds and images (5 images/well) were acquired every 8 h for 3 days at 10× magnification in an IncuCyte SX5 live-content imaging system (Essen Bioscience) at 37 °C with 5% CO2. Images were analyzed using IncuCyte cell-by-cell analysis software to detect and quantify live cells (phase-contrast). The number of cells at each time point was quantified using IncuCyte cell-by-cell analysis software, and cell growth was evaluated as the normalized ratio between counted cells at each time point normalized to those counted at time 0. Graph drawing and statistical analyses were performed in GraphPad Prism according to the statistical tests described in the figure legends.

HCC1937 cells = experiment: Cell proliferation by live-cell imaging (IncuCyte), HCC1937 TNBC cells; assay type: cell-based; conditions: 40 μM, 72 h
Procedure: as §4, §5, §6

MDA-MB-231 cells = experiment: Cell proliferation by live-cell imaging (IncuCyte), MDA-MB-231 TNBC cells; assay type: cell-based; conditions: for effect on MDA-MB-231 cell proliferation: 40 μM, 48 and 72 h
Description: TNBC represents approximately 10–15% of all breast cancers and is the most aggressive subtype of breast cancer. Patients with TNBC have a poor outcome compared to the other subtypes of breast cancer. In the breast cancer tissue, β-catenin is overexpressed compared to the normal tissue. The overexpression of β-catenin is associated with TNBC and lymph node metastasis. […] There is a quest for the development of new therapies to treat TNBC. […] Effects on cell proliferation of MDA-MB-231 TNBC cells were evaluated by live-time cell imaging using the Incucyte S5 system.
as §5, §6

SW620 cells = experiment: Inhibition of SW620 cells; assay type: cell-based; conditions: Homo sapiens, SW-620, in the combination 9 at constant 0.25 μM
β-catenin = experiment: Wnt reporter assay (TOP/FOP luciferase) in LiCl-treated HCT116 cells; assay type: cell-based; conditions: Homo sapiens, HCT-116, read-out: IC50, inhibition of β-catenin (luciferase reporter), LiCl 50 mM, 24 h
Procedure: Compounds 9 and 10 were assayed at increasing 10 and 100 nM and 1 μM concentrations in HCT116 cells transfected with luciferase-based vectors and treated with LiCl (50 mM). TOP TK is a well-established Wnt reporter vector containing eight sequences of Tcf/Lef binding site upstream of the timidine kinase (TK) minimal promoter, driving the expression of firefly luciferase.
Figure 6 HCT116 cells were transfected with luciferase-based vectors and treated with LiCl (50 mM) together with increasing concentrations of compound 9 or 10. Cells were harvested 24 h post-treatment and assayed for luciferase activity. Inhibitions were calculated as the luciferase/renilla ratio of the treated samples vs. the luciferase/renilla ratio of the untreated (control) samples. Data are represented as the mean ± SD of three independent experiments, each performed in triplicate. **p < 0.01, ***p < 0.001, n.s = not significant, as determined by analysis of variance (ANOVA).
Luciferase assays were performed as previously described.[58],[59] Briefly, HCT116 cells were transfected with Topflash reporter (M50 Super 8x TOPFlash, containing 8 repeats of TCF/LEF binding sites) or Fopflash reporter (M51 Super 8x FOPFlash, containing the mutated TCF/LEF binding sites) plasmids using the Dreamfect Gold Transfection Reagent (#DG80500, OZ Biosciences). […]

Myc = Myc and β-catenin expression (western blot, qPCR) in LiCl-treated HCT116 cells; assay type: cell-based, human; conditions: HCT116, LiCl 50 mM, 24 h
Procedure: (§7) To this end, HCT116 cells were treated for 24 h with 50 mM LiCl and increasing concentrations (10–50–100 μM) of the two compounds.
Figure 7 Top panels. […] Vinculin was used as a loading control. […] Bottom panels. c-Myc mRNA levels were measured by qPCR and normalized to the expression of β-actin mRNA and expressed as fold change relative to the control sample. Results represent the mean ± SD of three independent experiments, each performed in triplicate. **p < 0.01, ***p < 0.001 as determined by ANOVA.
Briefly, total proteins from the cells in each group were subjected to 12% denaturing sodium dodecyl sulfate-polyacrylamide gel electrophoresis (SDS-PAGE). The proteins were then transferred onto a poly(vinylidene fluoride) (PVDF) membrane (Millipore). […] After the membrane was fully washed, it was incubated with secondary antibodies at 37 °C for 45 min goat anti-rabbit IgG H&L (HRP) (ab97051), Abcam, MA. The membrane was washed with Tris-buffered saline/Tween-20 (TBST) 4 times at room temperature for 14 min each time. Next, the samples were exposed and imaged (Sigma-Aldrich Chemical) using the enhanced chemiluminescence (ECL) method (Pierce Biotechnology).

Fgf20 and Sal4 = experiment: Wnt-target gene mRNA levels (qPCR) in LiCl-treated HCT116 cells; assay type: cell-based, human; conditions: HCT116, LiCl 50 mM, 24 h, 10 μM
Procedure: as §7
HCT116 was treated with LiCl (50 mM) and 10 μM compound 9 or 10 for 24 h. Fgf20, Sall4 (Wnt-target genes) mRNA levels were measured by qPCR and normalized to the expression of β-actin mRNA. Results are expressed as fold change relative to the control sample and represent the mean ± SD of three independent experiments, each performed in triplicate. *p < 0.05, **p < 0.01, ***p < 0.001 as determined by ANOVA.

[3] = tested on: β-catenin/Tcf-4 interaction; experiment: Co-immunoprecipitation of β-catenin and Myc-tagged Tcf-4 in HCT116 cells; assay type: cell-based, human; conditions: HCT116 transfected with Myc-tagged Tcf-4, LiCl 50 mM, 50 μM, 24 h
Procedure: Toward this end, we performed a co-immunoprecipitation study in HCT116 cells transfected with Myc-tagged Tcf-4, treated with the two compounds, and immunoprecipitated with Myc antisera.
HCT116 cells were transiently transfected with the Myc-tagged Tcf-4 plasmid and treated with LiCl (50 mM) and 9 (50 μM) or 10 (50 μM) for 24 h. Lysates were immunoprecipitated using Myc-agarose beads and western blot analysis was performed. […] Myc-agarose beads saturated with the Myc-blocking peptide before immunoprecipitation were used as a negative control.
Co-immunoprecipitation assays were performed as previously described.[16],[60] Briefly, 2 × 10^4/cm^2 HCT116 cells were seeded in a 100 mm dish and incubated overnight at 37 °C. Cells were transfected with pcDNA/Myc Tcf-4 (Addgene plasmid #16512; http://n2t.net/addgene:16512; RRID:Addgene_16512)[29] and, after overnight incubation, were starved for 8 h in a medium containing Opti-MEM (#31985070, Thermo Fisher Scientific), FBS 0.5%, pen/strep 1%, NaPyr 1%, NeAA 1%, and then co-treated with 50 mM LiCl and DMSO or 50 μM compound 9 or 50 μM compound […] for 24 h. Cells were collected at the end of the treatments and lysed in a buffer containing 0.5% Triton X-100, 0.5 mM EDTA, and 1 mM DTT. […] Chemioluminescence was detected using WesternBright ECL (#K-12045-D50, Advansta), according to the manufacturer’s protocol.

Row | Structure (SMILES) | % Luciferase Activity SW480 (residual) [1] [%] | % Luciferase Activity HCT116 (residual) [2] [%] | effect on HCC1806 cell growth (HCC1806 cells) | effect on HCC1937 cell growth (HCC1937 cells) | melting point [°C] | other results
1 | COC(=O)c1ccc(NS(=O)(=O)c2ccc(Br)cc2)cc1 [Compound 1] |  |  |  |  |  | IC50, HCT116 colon cancer cell growth (HCT116 colon cancer cell): submicromolar
2 | CCOC(=O)c1ccc(NS(=O)(=O)c2ccc(Br)cc2)cc1 [Compound 3, Ethyl 4-((4-bromophenyl)sulfonamido)benzoate, reference compound] | 21.61 | 18.75 | mild efficacy | mild efficacy |  | 
3 | O=S(=O)(Nc1cccc(-c2ccco2)c1)c1ccc(Br)cc1 [Compound 5, 4-Bromo-N-(3-(furan-2-yl)phenyl)benzenesulfonamide] | 4.80 | 5.88 | significant inhibition | significant inhibition | 147 to 150 | effect on MDA-MB-231 cell proliferation (MDA-MB-231 cells): significant antiproliferative effects
4 | O=c1[nH]cc(F)c(=O)[nH]1 [Compound 5-FU, 5-fluorouracil, reference compound] |  |  |  |  |  | pEC50 (SW620 cells): 3.99
5 | O=S(=O)(Nc1cccc(-c2ccccn2)c1)c1ccc(Br)cc1 [Compound 6, 4-Bromo-N-(3-(pyridin-2-yl)phenyl)benzenesulfonamide] | 28.46 | 5.14 | significant inhibition | significant inhibition | 175 to 177 | effect on MDA-MB-231 cell proliferation (MDA-MB-231 cells): significant antiproliferative effects
6 | O=S(=O)(Nc1cccc(-c2ccccn2)c1)c1ccc(Cl)cc1 [Compound 7, 4-Chloro-N-(3-(pyridin-2-yl)phenyl)benzenesulfonamide] | 7.32 | 0.37 | mild inhibitory effect |  | 166 to 169 | 
7 | O=S(=O)(Nc1ccc(-c2ccco2)cc1)c1ccc(Br)cc1 [Compound 8, 4-Bromo-N-(4-(furan-2-yl)phenyl)benzenesulfonamide] | 1.82 | 5.58 | mild inhibitory effect |  | 163 to 166 | 
8 | O=S(=O)(Nc1ccc(-c2ccccn2)cc1)c1ccc(Cl)cc1 [Compound 10, 4-Chloro-N-(4-(pyridin-2-yl)phenyl)benzenesulfonamide] | 1.75 | 4.56 |  |  | 180 to 182 | pIC50 (β-catenin): < 6.00; inhibition of Myc expression (Myc; 10 μM): about 2.5 fold; protein and mRNA levels of Myc (Myc; 10–50–100 μM): significant dose-dependent inhibition; β-catenin protein levels (Myc; 10–50–100 μM): reduced only at the highest dose; mRNA levels of Wnt-target genes Fgf20 and Sal4 (Fgf20 and Sal4): strongly inhibited; association between β-catenin and Tcf-4 (co-immunoprecipitation) [3]: completely abrogated the association
9 | O=C1[C@H](Cc2ccc(O)cc2)N2C(=O)CCN(C(=O)NCc3ccccc3)[C@H]2CN1Cc1cccc2ccccc12 [ICG-001, reference compound] |  |  |  |  |  | reduction of MDA-MB-231 cell viability (MDA-MB-231 cells; even at the low dose of 0.49 μM): most effective compound
